Patent US11998610B2, “Conjugates and methods of using the same” (Flagship Pioneering Innovations V, Inc., priority 2018, dated 2024)
Non-standard residues stand in square brackets, D forms with d. Residues, ends and D or L forms follow the SMILES beside them. *: point of attachment. Octanoyl = CCCCCCCC(=O)*; Bz = O=C(c1ccccc1)*

Experiments:
CT26.CL25 cells = experiment: Cell viability readout (CellTiter-Glo) with bacteria-free media; format: cell-based, mouse; conditions: 72 h
Description: Example 100: Cell-Based Assay of Bacterial Enzymes with Mammalian CT26.CL25 Mouse Colorectal Carcinoma Viability Readout
Bacteria-free media was incubated with the indicated test compound. ((R)—N1-(2-(methylamino)ethyl)-2-octanamidosuccinamide, a recognition element-linker conjugate lacking a payload, was serially diluted 1:1000 in DMSO and […] in medium+10% FBS to give a final concentration of 10 nM. Compound 35, Compound 76, Compound 77, Compound 78, Compound 79, and SN-38 were serially diluted 1:1000 in DMSO and 1:1000 in medium to give a final concentration of 10 nM, and then the bacteria-free supernatants were tested for their ability to kill mammalian cells. As an additional control, the test compound will also be incubated with bacteria-free media. The above steps can also be performed in the presence of E. coli (CFT073 ATCC 700928, Nissle 1917, or BL21 (DE3)) to effect cleavage of the conjugates of the application.
On Day 1, CT26.CL25 cells (15,000 cells/well) were seeded in triplicate into a 24 well plate and incubated overnight in 100 μL of complete medium. The reactions (bacteria or media blank) was pelleted by centrifugation, and then the supernatant was passed through a 0.2 μm sterile filter to remove residual bacteria.
On Day 2, 300 μL of a 10 nM solution of each compound in media were applied to separate wells of CT26.CL25 cells as prepared on Day 1. The cells were incubated at 37° C. for 72 h. After this point, viability was assessed using a CellTiter-Glo kit.
Binning of the compounds was achieved by measuring cell growth or arrest (e.g. remaining cells are >90% viable, >80% viable, >70% viable, >60% viable, >50% viable, >40% viable, >30% viable, >20% viable, or >10% viable).

E. coli BL21(DE3) [1] = experiment: Payload release in the presence of fecal matter, ClbP negative E. coli; format: cell-based; conditions: 10 μM compound, anaerobic, 37° C., 20 h, LCMS
Description: (§1) This example is representative of the methods described in Example 103. Fecal samples were subjected to metagenomic whole-genome shotgun sequencing followed by querying the dataset for the presence of the clbP gene or by attempting to amplify the gene with primers specific for it by qPCR. Samples that gave a signal below the detection limit were used in subsequent steps. The fecal sample was resuspended as a 15% (w/v) slurry in Anaerobic Phosphate Buffer Saline.
(§2) Following steps 1 and 2 as detailed in Example 98, E. coli CFT073 ATCC 700928, E. coli Nissle 1917, or E. coli BL21(DE3) were grown in liquid culture.
(§3) In an anaerobic chamber, the E. coli strains were added to the fecal samples obtained in step 1 at a dilution level calculated to represent 0, 1, 10, 50, 90, 99, or 100% of all organisms present in PRAS dilution blank on a 200 μL volume. The test compound (10 μM final concentration) was added to the mixture. The test compound was also added to a bacteria-free media control under similar conditions. The plate was sealed and incubated at 37° C. for 20 h. Under similar conditions, a standard curve of both the starting material and the payload compound was made in bacteria-free media.
(§4) After 20 h, an aliquot was tested for breakdown and release of a payload by LCMS by diluting serially to a final dilution of 1:100 first with Acetonitrile (10× dilution) and then with (1:1) Mobile Phase A-0.1% Formic Acid in Water:Mobile Phase B-0.1% Formic acid in Acetonitrile (1 OX dilution), with absolute quantification compared to the external standard curve. In an ideal case, the amount of payload released in the reaction(s) with ClbP-encoding E. coli was >75% of the theoretical maximum, and none was released in the E. coli BL21(DE3) and media-alone conditions. In an acceptable case, the amount of payload released in the reaction(s) with ClbP-encoding E. coli was 25-75% of the theoretical maximum, and <25% of the theoretical maximum was released in the E. coli BL21(DE3) and media-alone conditions. In a non-preferred case, the amount of payload released in the reactions(s) with ClbP-encoding E. coli was <25% of the theoretical maximum, and >25% of the theoretical maximum was released in the E. coli BL21(DE3) and media-alone conditions.

E. coli Nissle 1917 = experiment: Payload release in the presence of fecal matter, ClbP positive E. coli; format: cell-based; conditions: 10 μM compound, anaerobic, 37° C., 20 h, LCMS
Description: as §1, §2, §3, §4

[2] = In vitro Colonic Material Stability Assay; format: in vitro ADME; conditions: colonic material slurry, anaerobic, 1 or 10 μM, 24 h
Summary of the method: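 Compounds were added at 1 or 10 μM final to colonic material slurry (6.7 μL of 15% w/v slurry per 1 mL YCFAC or similar medium). Samples taken at 0–2880 min were acetonitrile-quenched and the remaining compound quantified by LC/MS.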

WT ClbP = experiment: Assay with purified ClbP protein (LCMS); format: biochemical, E. coli; conditions: 20 μM WT ClbP, room temperature, 24 h
Description: This example is representative of the method described in Example 91 the soluble peptidase domain (amino acids 38 to 375) of ClbP or the catalytically inert mutant S95A was cloned into pET28a using previously defined boundaries as a starting point (Brotherton, J. Am. Chem. Soc., 135:3359-3362, 2013).
WT ClbP or S95A ClbP was isolated as an N-terminally tagged HiS6-SUMO1-fusion protein from […] using E. coli BL21(DE3)RIPL to express the protein. The cells were lysed in 30 mM Tris pH 8.0, 300 mM NaCl, 10% (v/v) glycerol, benzonase (Sigma-Millipore), lysozyme, B-per (ThermoFisher), and Y-per (ThermoFisher). The lysate was clarified via centrifugation (13,000 g, 20 min), and the supernatant was incubated with HiBond Ni-NTA agarose (5 mL). The resin was subsequently washed with wash buffer (30 mM Tris pH 7.5, 250 mM NaCl, 10 mM imidazole, 3% (v/v) glycerol, and 2 mM TCEP). The resin was incubated at 30° C. for 1 h with 1.4 mg ULP1 protease. The resin was then washed with an additional fraction of wash buffer. Centrifuge filtration was used to concentrate the protein, and the concentrated protein was subsequently applied to a 16/600 Superdex 200 size exclusion column with an isocratic elution of 25 mM HEPES, 25 mM Tris pH 7.4, 325 mM NaCl, 10 mM KCl and 3% (v/v) glycerol at a flow rate of […]. The fractions containing the protein were determined by SDS-PAGE, combined, and concentrated by centrifuge filtration. 3 mM TCEP was added to the concentrated protein, which was then aliquoted, flash frozen in liquid N2, and stored at −80° C.
This example is representative of the method described in Example D, ClbP was incubated with test compounds in an in vitro assay. In a typical assay, 0, 1, or 20 μM purified WT or S95A ClbP was incubated with 100 or 500 μM compound in reaction buffer (50 mM Tris-HCl pH 7.5, 37.5 mM NaCl) at room temperature for 24 h. The total volume of this reaction was 150 μL.
After 24 h, 2 volumes of acetonitrile (300 μL) were added to the reaction to quench the solution.
The reaction was centrifuged (4,000 g, 15 min), and then the supernatant was analyzed by LCMS. 5 μL of the supernatant was injected onto an Acquity UPLC BEH C18 1.7 μm 2.1×100 column. Buffer A was 0.1% (v/v) formic acid in water and buffer B was 0.1% (v/v) formic acid in acetonitrile. The flow rate was 0.5 mL/min. The initial % B was 10, which was held for 30 s then ramped up to 90% B over 3 min, held at 90% B for 1 min, ramped down to 10% B over 15 s, and then held at 10% B for 15 s. The UV-Vis spectrum from 210-400 nm was monitored with 3.6 nm resolution. Positive and negative mode ESI were monitored from 100-1000 m/z with a 20 V cone voltage at 5 Hz sampling frequency in centroid collection.
The relative starting material remaining in the WT ClbP reaction was determined by LCMS and then compared to the residual starting material in the no-enzyme and catalytically inert enzyme (S95A ClbP) reactions. In an ideal case, the amount of residual starting material in the WT ClbP reaction was <25% of the amount in the S95A ClbP and no-enzyme conditions. In an acceptable case, the amount of residual starting material in the WT ClbP reaction was 25-75% of the amount in the S95A ClbP and no-enzyme conditions. In a non-preferred case, the amount of residual starting material in the WT ClbP reaction was >75% of the amount in the S95A ClbP and no-enzyme conditions.
Formation of the anticipated product was likewise quantified by LCMS analysis and confirmed by coelution with an external product standard. In an ideal case, the amount of product formed in the WT ClbP reaction corresponded to >75% of the theoretical maximum. In an acceptable case, the amount of product formed in the WT ClbP reaction corresponded to 25-75% of the theoretical maximum. In a non-preferred case, the amount of product formed in the WT ClbP reaction corresponded to <25% of the theoretical maximum.

[3] = system: E. coli CFT073 ATCC 700928 and/or E. coli Nissle 1917; experiment: Cell-based assay with ClbP with LCMS, ClbP positive strain; conditions: for % Remaining in ClbP Positve Relative to Media-Only: ClbP-encoding E. coli, 10 μM compound, 37° C., 20 h; for Difference between the ClbP Positive and ClbP Negative release profiles: conclusion from Table 4
Summary of the method: (§5)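 Compound (10 μM final) incubated 20 h at 37° C, aerobically, with 1:40-diluted overnight cultures of ClbP-positive E. coli or negative BL21(DE3), in duplicate, alongside uninoculated LB. Remaining parent quantified by LC-MS/MS (MRM) after acetonitrile quench, expressed as percent of media-alone.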

E. coli BL21(DE3) [4] = experiment: Cell-based assay with ClbP with LCMS, ClbP negative strain; conditions: 10 μM compound, 37° C., 20 h
Summary of the method: as §5

[5] = 10 nM compound, CT26.CL25 cells, CellTiter-Glo

SMILES | Bacteria-free media (Luminescence, average of three runs) (CT26.CL25 cells; [5]) | % payload released in ClbP negative (BL21 DE3) at 1:1 ratio of E. coli to fecal bacteria (E. coli BL21(DE3) [1]) [%] | % payload released in ClbP positive (Nissle 1917) at 1:1 ratio of E. coli to fecal bacteria (E. coli Nissle 1917) [%] | Assay 3 (% Remaining at 24 h) [2] | % Remaining in ClbP Positve Relative to Media-Only [3] | Difference between the ClbP Positive and ClbP Negative release profiles [3] | % Remaining in ClbP Negative Relative to Media-Only (E. coli BL21(DE3) [4]) | also measured
CCCCCCCC(=O)N[C@H](CC(N)=O)C(=O)NCCN(C)C(=O)O[C@]1(CC)C(=O)OCc2c1cc1n(c2=O)Cc2c-1nc1ccc(O)cc1c2CC [Example 79, (S)-4,11-diethyl-9-hydroxy-3,14-dioxo-3,4,12,14-tetrahydro-1H-pyrano[3′,4′:6,7]indolizino[1,2-b]quinolin-4-yl (2-((R)-4-amino-2-octanamido-4-oxobutanamido)ethyl)(methyl)carbamate] | 288245 | 0 | 0 |  |  |  |  | 
CCc1c2c(nc3ccc(O)cc13)-c1cc3c(c(=O)n1C2)COC(=O)[C@]3(O)CC [SN-38, 7-ethyl-10-hydroxy-camptothecin, reference compound] | 121387 |  |  |  |  |  |  | 
COC(=O)[C@H](C)NC(=O)[C@@H](CC(N)=O)NC(=O)c1ccccc1 [Example 13, Methyl benzoyl-D-asparaginyl-L-alaninate] (Bz-[dN]-Ala-OMe) |  |  |  | C (>75% of the tested compound remaining) | ++ (<25% compound remaining in the 20 μM WT ClbP reaction relative to the control) | particularly favorable difference | + (between 25-75% compound remaining in the 20 μM WT ClbP reaction relative to the no-enzyme control) | Status (compound remaining in WT ClbP reaction relative to no-enzyme control) (WT ClbP; 100 μM compound): ++ (<25% compound remaining in the 20 μM WT ClbP reaction relative to the control)
CCCCCCCC(=O)N[C@H](CC(N)=O)C(=O)NCCNC [(R)—N1-(2-(methylamino)ethyl)-2-octanamidosuccinamide, reference compound] |  |  |  |  |  |  |  | Bacteria-free media (Luminescence, average of three runs) (CT26.CL25 cells; 0.01 µM): 278313
CCCCCCCC(=O)N[C@H](CC(N)=O)C(=O)NCCCC(=O)OCn1cc(F)c(=O)[nH]c1=O [Example 72B, (5-fluoro-2,4-dioxo-3,4-dihydropyrimidin-1(2H)-yl)methyl (R)-4-(4-amino-2-octanamido-4-oxobutanamido)butanoate] |  | 5.4 | 41.1 |  | ++ (<25% compound remaining in the 20 μM WT ClbP reaction relative to the control) | particularly favorable difference | − (>75% compound remaining in the 20 μM WT ClbP reaction relative to the no-enzyme control) | 
CCCCCCCC(=O)N[C@H](CC(=O)O)C(=O)N[C@@H](C)C(=O)OC [Example 8, (R)-4-(((S)-1-methoxy-1-oxopropan-2-yl)amino)-3-octanamido-4-oxobutanoic acid] (Octanoyl-[dD]-Ala-OMe) |  |  |  | B (25-75% of the tested compound remaining) | − (>75% compound remaining in the 20 μM WT ClbP reaction relative to the no-enzyme control) |  | + (between 25-75% compound remaining in the 20 μM WT ClbP reaction relative to the no-enzyme control) | Status (compound remaining in WT ClbP reaction relative to no-enzyme control) (WT ClbP; 500 μM compound): − (>75% compound remaining in the 20 μM WT ClbP reaction relative to the no-enzyme control)
